Key:
[1] = tested on: MOOVA (Monochoria); test: Postemergence weed control under flooded paddy conditions; assay type: in vivo, Monochoria vaginalis; details: postemergence weeds
In short: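 Herbicidal effect is judged by eye on a 0–9 scale versus control, 3–4 weeks after dosing. Dosing is into flood water kept 1.5–3 cm over the soil, at about 0.0313–0.500 kg/ha in aqueous/acetone 50/50 v/v, on 3–5 cm weeds and 1.5–2.5-leaf rice seedlings.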

[2] = tested on: CHEAL (Lambsquarters, Common); test: Preemergence herbicidal evaluation; assay type: in vivo, Chenopodium album; details: rated 4-5 weeks after treatment; for CHEAL rating: preemergence, 0-9 scale
In short: (§1)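 Visual 0-9 rating vs control (stand, vigor, malformation, size, chlorosis, overall appearance), scored 4-5 wk after spraying. Seeded soil cups were treated preemergence with compound in aqueous acetone, ~0.0156-0.500 kg/ha equivalent.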

[3] = tested on: ORYSAT (Rice, Tebonnet); test: Preemergence herbicidal evaluation; assay type: in vivo, Oryza sativa, (L.) Tebonnet; details: rated 4-5 weeks after treatment; for ORYSAT rating: preemergence, 0-9 scale
In short: as §1

[4] = tested on: CYPSE (Flatsedge); test: Preemergence weed control under flooded paddy conditions; assay type: in vivo, Cyperus serotinus; details: rated 3-4 weeks after treatment
In short: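 Using flooded silt loam (water 1.5 to 3 cm deep), seeds sown in the top 0.5 cm were exposed preemergence to compound pipetted into the flood at about 0.0313 to 0.500 kg/ha. Effects were scored 0-9 by eye three to four weeks later.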

[5] = tested on: ECHCG (Barnyardgrass); test: Postemergence herbicidal evaluation; assay type: in vivo, Echinochloa crus-galli; details: for ECHCG herbicidal rating: postemergence
In short: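 Visual 0–9 rating versus control (stand, vigor, malformation, size, chlorosis, overall appearance), taken four to five weeks post-spray. Two-week-old seedlings received roughly 0.0156–0.500 kg/ha active in acetone/water (50/50) with 0.5% TWEEN 20 via nozzle at 40 psi.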

[6] = tested on: ECHORC (Watergrass (Calif.)); test: Preemergence weed control under flooded paddy conditions; assay type: in vivo, Echinochloa oryzoides; details: rated 3-4 weeks after treatment
In short: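 Visual injury scored 0-9 against control three to four weeks post-treatment, greenhouse-grown. Application: acetone/water (50/50) solutions dosed directly into flood water (1.5-3 cm over silt loam, planted top 0.5 cm), roughly 0.0313 to 0.500 kg/ha active ingredient.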

[7] = rate 0.0313 kg/ha, 3-4 weeks after treatment
[8] = rate 0.0625 kg/ha, 3-4 weeks after treatment
[9] = rate 0.1250 kg/ha, 3-4 weeks after treatment
[10] = rate 0.2500 kg/ha, 3-4 weeks after treatment

Cn1c(C(F)(F)F)cc(=O)n(-c2cc(N=C3SCC(=O)N3CC(=O)NS(C)(=O)=O)c(Cl)cc2F)c1=O [Compound 38, 2-{{2-Chloro-5-[3,6-dihydro-3-methyl-2,6-dioxo-4-(trifluoromethyl)-1(2H)-pyrimidinyl]-4-fluoro-phenyl}imino}-N-(methylsulfonyl)-4-oxo-3-thiazolidineacetamide]
4.0: Herbicidal rating ECHORC ([6]; 0.1250 kg/ha)
7.0: Herbicidal rating ECHORC ([6]; 0.2500 kg/ha)
0.0: Preemergence herbicidal rating ORYSAT ([3]; rate 0.0313 kg/ha) | Preemergence herbicidal rating ORYSAT ([3]; rate 0.0625 kg/ha) | Preemergence herbicidal rating ORYSAT ([3]; rate 0.1250 kg/ha) | Herbicidal rating CYPSE ([4]; 0.0313 kg/ha) | Herbicidal rating CYPSE ([4]; 0.0625 kg/ha) | Herbicidal rating CYPSE ([4]; 0.1250 kg/ha) | Postemergence herbicidal rating ECHCG ([5]; Rate 0.0156 kg/ha) | Herbicidal rating ECHORC ([6]; 0.0313 kg/ha)
9.0: Herbicidal rating MOOVA [1, 7] | Herbicidal rating MOOVA [1, 8] | Herbicidal rating MOOVA [1, 9] | Herbicidal rating MOOVA [1, 10] | Preemergence herbicidal rating CHEAL ([2]; rate 0.0313 kg/ha) | Preemergence herbicidal rating CHEAL ([2]; rate 0.0625 kg/ha) | Preemergence herbicidal rating CHEAL ([2]; rate 0.1250 kg/ha) | Preemergence herbicidal rating CHEAL ([2]; rate 0.2500 kg/ha) | Postemergence herbicidal rating ECHCG ([5]; Rate 0.2500 kg/ha)
2.0: Preemergence herbicidal rating ORYSAT ([3]; rate 0.2500 kg/ha) | Postemergence herbicidal rating ECHCG ([5]; Rate 0.0313 kg/ha) | Postemergence herbicidal rating ECHCG ([5]; Rate 0.0625 kg/ha) | Herbicidal rating ECHORC ([6]; 0.0625 kg/ha)
3.0: Herbicidal rating CYPSE ([4]; 0.2500 kg/ha)
5.0: Postemergence herbicidal rating ECHCG ([5]; Rate 0.1250 kg/ha)

CN1C(=O)C(CC(N)=O)SC1=Nc1cc(-n2c(=O)cc(C(F)(F)F)n(C)c2=O)c(F)cc1Cl (stereo not drawn) [Compound 92, 2-{{2-Chloro-5-[3,6-dihydro-3-methyl-2,6-dioxo-4-(trifluoromethyl)-1(2H)-pyrimidinyl]-4-fluorophenyl}imino}-3-methyl-4-oxo-5-thiazolidineacetamide]
5.0: ORYSAT rating ([3]; 0.2500 kg/ha)
2.0: ECHORC herbicidal effect rating ([6]; 0.1250 kg/ha)
3.0: ECHORC herbicidal effect rating ([6]; 0.2500 kg/ha)
1.0: ECHCG herbicidal rating ([5]; rate 0.0315 kg/ha) | ECHCG herbicidal rating ([5]; rate 0.0630 kg/ha)
0.0: ORYSAT rating ([3]; 0.0156 kg/ha) | ORYSAT rating ([3]; 0.0313 kg/ha) | ORYSAT rating ([3]; 0.0625 kg/ha) | ORYSAT rating ([3]; 0.1250 kg/ha) | ECHCG herbicidal rating ([5]; rate 0.0158 kg/ha) | ECHORC herbicidal effect rating ([6]; 0.0313 kg/ha) | ECHORC herbicidal effect rating ([6]; 0.0625 kg/ha)
9.0: Herbicidal rating MOOVA ([1]; Rate 0.0313 kg/ha, rated 3 to 4 weeks after treatment) | Herbicidal rating MOOVA ([1]; Rate 0.0625 kg/ha, rated 3 to 4 weeks after treatment) | Herbicidal rating MOOVA ([1]; Rate 0.1250 kg/ha, rated 3 to 4 weeks after treatment) | Herbicidal rating MOOVA ([1]; Rate 0.2500 kg/ha, rated 3 to 4 weeks after treatment) | CHEAL rating ([2]; 0.0156 kg/ha) | CHEAL rating ([2]; 0.0313 kg/ha) | CHEAL rating ([2]; 0.0625 kg/ha) | CHEAL rating ([2]; 0.1250 kg/ha) | CHEAL rating ([2]; 0.2500 kg/ha) | CYPSE herbicidal effect rating ([4]; 0.0313 kg/ha) | CYPSE herbicidal effect rating ([4]; 0.0625 kg/ha) | CYPSE herbicidal effect rating ([4]; 0.1250 kg/ha) | CYPSE herbicidal effect rating ([4]; 0.2500 kg/ha)

Cn1c(C(F)(F)F)cc(=O)n(-c2cc(N=C3SCC(=O)N3[C@@H](Cc3ccccc3)C(=O)O)c(Cl)cc2F)c1=O [Compound 53, α-Benzyl-2-{{2-chloro-5-[3,6-dihydro-3-methyl-2,6-dioxo-4-(trifluoromethyl)-1(2H)-pyrimidinyl]-4-fluorophenyl}imino}-4-oxo-3-thiazolidineacetic acid, L-]
5.0: Preemergence herbicidal rating ORYSAT ([3]; rate 0.1250 kg/ha)
1.0: Preemergence herbicidal rating ORYSAT ([3]; rate 0.0625 kg/ha)
0.0: Preemergence herbicidal rating ORYSAT ([3]; rate 0.0313 kg/ha) | Herbicidal rating CYPSE ([4]; 0.0313 kg/ha) | Herbicidal rating CYPSE ([4]; 0.0625 kg/ha) | Herbicidal rating CYPSE ([4]; 0.1250 kg/ha) | Herbicidal rating CYPSE ([4]; 0.2500 kg/ha) | Herbicidal rating ECHORC ([6]; 0.0313 kg/ha) | Herbicidal rating ECHORC ([6]; 0.0625 kg/ha)
7.0: Preemergence herbicidal rating ORYSAT ([3]; rate 0.2500 kg/ha)
3.0: Postemergence herbicidal rating ECHCG ([5]; Rate 0.0315 kg/ha) | Herbicidal rating ECHORC ([6]; 0.2500 kg/ha)
9.0: Herbicidal rating MOOVA [1, 9] | Herbicidal rating MOOVA [1, 10] | Preemergence herbicidal rating CHEAL ([2]; rate 0.0313 kg/ha) | Preemergence herbicidal rating CHEAL ([2]; rate 0.0625 kg/ha) | Preemergence herbicidal rating CHEAL ([2]; rate 0.1250 kg/ha) | Preemergence herbicidal rating CHEAL ([2]; rate 0.2500 kg/ha) | Postemergence herbicidal rating ECHCG ([5]; Rate 0.0630 kg/ha)
2.0: Herbicidal rating MOOVA [1, 7] | Herbicidal rating MOOVA [1, 8] | Postemergence herbicidal rating ECHCG ([5]; Rate 0.0158 kg/ha) | Herbicidal rating ECHORC ([6]; 0.1250 kg/ha)

CC1SC(=Nc2cc(-n3c(=O)cc(C(F)(F)F)n(C)c3=O)c(F)cc2Cl)N(C)C1=O (stereo not drawn) [Compound 9]
4.0: Herbicidal rating ECHORC ([6]; 0.1250 kg/ha)
0.0: Herbicidal rating CYPSE ([4]; 0.0313 kg/ha) | Herbicidal rating CYPSE ([4]; 0.0625 kg/ha) | ECHCG herbicidal rating ([5]; rate 0.0156 kg/ha) | ECHCG herbicidal rating ([5]; rate 0.0313 kg/ha) | Herbicidal rating ECHORC ([6]; 0.0313 kg/ha)
7.5: ORYSAT preemergence herbicidal rating ([3]; rate 0.0625 kg/ha)
7.0: Herbicidal rating CYPSE ([4]; 0.2500 kg/ha) | Herbicidal rating ECHORC ([6]; 0.2500 kg/ha)
4.5: ECHCG herbicidal rating ([5]; rate 0.1250 kg/ha)
8.5: ORYSAT preemergence herbicidal rating ([3]; rate 0.0313 kg/ha)
2.0: Herbicidal rating CYPSE ([4]; 0.1250 kg/ha) | ECHCG herbicidal rating ([5]; rate 0.0625 kg/ha) | Herbicidal rating ECHORC ([6]; 0.0625 kg/ha)
5.5: ORYSAT preemergence herbicidal rating ([3]; rate 0.0156 kg/ha)
9.0: Herbicidal rating MOOVA [1, 7] | Herbicidal rating MOOVA [1, 8] | Herbicidal rating MOOVA [1, 9] | Herbicidal rating MOOVA [1, 10] | CHEAL preemergence herbicidal rating ([2]; rate 0.0156 kg/ha) | CHEAL preemergence herbicidal rating ([2]; rate 0.0313 kg/ha) | CHEAL preemergence herbicidal rating ([2]; rate 0.0625 kg/ha) | CHEAL preemergence herbicidal rating ([2]; rate 0.1250 kg/ha) | CHEAL preemergence herbicidal rating ([2]; rate 0.2500 kg/ha) | ORYSAT preemergence herbicidal rating ([3]; rate 0.1250 kg/ha) | ORYSAT preemergence herbicidal rating ([3]; rate 0.2500 kg/ha)

Source: patent publication US20020137929A1, “1 - (3-heterocyclylphenyl) isothiourea, -isourea, -guanidine and -amidine herbicidal agents” (Intellectual Property Department, BASF Aktiengesellschaft, priority 1998, published 2002)
